Data reported in publication PMC8333425, “Discovery of a dual Ras and ARF6 inhibitor from a GPCR endocytosis screen” (Nature Communications, 2021).

How the values were obtained:
Assay in all cases: KINOMEscan kinase binding assay
[1] = target: T1, 384 kinases from the human genome (Homo sapiens, UniProt Q9UF33); conditions: kinase EPHA6 (Entrez EPHA6)
T1 construct: purchased Eurofin/DiscoverX
Method in brief: (§1)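 A panel of 384 human kinases was profiled by KINOMEscan binding in the presence of 10 µM compound. Kinase–ligand binding was given as percent of DMSO control, averaged from duplicates in a single run, with an S(10) selectivity score.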

[2] = target: T2, 384 kinases from the human genome (Homo sapiens, UniProt Q08881); conditions: kinase ITK (Entrez ITK)
T2 construct: purchased Eurofin/DiscoverX
Method in brief: as §1

[3] = target: T3, 384 kinases from the human genome (Homo sapiens, UniProt Q9P0L2); conditions: kinase MARK1 (Entrez MARK1)
T3 construct: purchased Eurofin/DiscoverX
Method in brief: as §1

[4] = target: T4, 384 kinases from the human genome (Homo sapiens, UniProt Q96PY6); conditions: kinase NEK1 (Entrez NEK1)
T4 construct: purchased Eurofin/DiscoverX
Method in brief: as §1

[5] = target: T5, 384 kinases from the human genome (Homo sapiens, UniProt P52564); conditions: kinase MEK6 (Entrez MAP2K6)
T5 construct: purchased Eurofin/DiscoverX
Method in brief: as §1

[6] = target: T6, 384 kinases from the human genome (Homo sapiens, UniProt P15056)
T6 construct: purchased Eurofin/DiscoverX
T6 sequence (P15056 whole entry): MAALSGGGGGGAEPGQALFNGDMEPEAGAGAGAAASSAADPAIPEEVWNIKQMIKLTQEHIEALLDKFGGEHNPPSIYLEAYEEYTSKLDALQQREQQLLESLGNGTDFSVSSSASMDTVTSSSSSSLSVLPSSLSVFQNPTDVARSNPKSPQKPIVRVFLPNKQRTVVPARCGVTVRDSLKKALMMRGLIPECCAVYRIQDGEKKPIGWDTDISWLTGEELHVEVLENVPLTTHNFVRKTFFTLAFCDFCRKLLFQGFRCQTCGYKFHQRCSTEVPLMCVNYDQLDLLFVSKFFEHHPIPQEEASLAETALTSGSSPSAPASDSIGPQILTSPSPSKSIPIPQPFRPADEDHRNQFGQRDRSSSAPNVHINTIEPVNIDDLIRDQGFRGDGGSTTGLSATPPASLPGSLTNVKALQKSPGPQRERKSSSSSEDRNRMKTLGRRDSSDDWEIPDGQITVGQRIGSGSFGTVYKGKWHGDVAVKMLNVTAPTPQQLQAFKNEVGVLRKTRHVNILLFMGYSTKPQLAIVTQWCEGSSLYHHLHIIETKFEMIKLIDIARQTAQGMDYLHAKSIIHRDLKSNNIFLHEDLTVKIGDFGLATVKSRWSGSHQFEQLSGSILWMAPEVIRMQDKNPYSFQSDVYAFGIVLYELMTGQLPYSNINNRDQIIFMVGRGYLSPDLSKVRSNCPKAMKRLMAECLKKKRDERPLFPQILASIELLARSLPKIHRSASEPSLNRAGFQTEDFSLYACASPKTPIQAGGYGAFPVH
Method in brief: as §1

[7] = target: T7, 384 kinases from the human genome (Homo sapiens, UniProt O14936); conditions: kinase CASK (Entrez CASK)
T7 construct: purchased Eurofin/DiscoverX
T7 sequence (O14936 whole entry): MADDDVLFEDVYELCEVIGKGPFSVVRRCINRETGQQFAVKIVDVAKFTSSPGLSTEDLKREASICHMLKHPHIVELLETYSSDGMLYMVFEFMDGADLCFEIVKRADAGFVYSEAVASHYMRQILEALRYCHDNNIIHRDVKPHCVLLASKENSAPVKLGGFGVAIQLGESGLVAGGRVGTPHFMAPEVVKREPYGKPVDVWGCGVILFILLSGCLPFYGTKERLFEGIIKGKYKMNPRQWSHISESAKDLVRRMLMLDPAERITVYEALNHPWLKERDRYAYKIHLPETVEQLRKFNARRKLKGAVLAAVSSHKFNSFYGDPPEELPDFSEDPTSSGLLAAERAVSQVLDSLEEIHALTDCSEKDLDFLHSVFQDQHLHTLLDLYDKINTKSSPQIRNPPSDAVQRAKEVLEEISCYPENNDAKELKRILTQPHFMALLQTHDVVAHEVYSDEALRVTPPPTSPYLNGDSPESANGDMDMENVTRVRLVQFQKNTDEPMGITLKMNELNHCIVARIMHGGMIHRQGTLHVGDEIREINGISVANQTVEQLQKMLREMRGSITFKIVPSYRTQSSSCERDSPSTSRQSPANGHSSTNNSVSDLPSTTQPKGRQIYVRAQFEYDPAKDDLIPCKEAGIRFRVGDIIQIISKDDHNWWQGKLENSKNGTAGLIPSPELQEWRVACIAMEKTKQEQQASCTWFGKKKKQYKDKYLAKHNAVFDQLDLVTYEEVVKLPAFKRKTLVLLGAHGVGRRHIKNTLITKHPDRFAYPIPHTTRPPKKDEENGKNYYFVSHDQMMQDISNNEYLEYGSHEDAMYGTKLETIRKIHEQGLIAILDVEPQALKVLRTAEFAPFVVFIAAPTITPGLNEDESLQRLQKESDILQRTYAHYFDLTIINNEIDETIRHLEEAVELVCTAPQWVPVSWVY
Method in brief: as §1

[8] = target: T8, 384 kinases from the human genome (Homo sapiens, UniProt O43318); conditions: kinase TAK1 (Entrez MAP3K7)
T8 construct: purchased Eurofin/DiscoverX
T8 sequence (O43318 whole entry): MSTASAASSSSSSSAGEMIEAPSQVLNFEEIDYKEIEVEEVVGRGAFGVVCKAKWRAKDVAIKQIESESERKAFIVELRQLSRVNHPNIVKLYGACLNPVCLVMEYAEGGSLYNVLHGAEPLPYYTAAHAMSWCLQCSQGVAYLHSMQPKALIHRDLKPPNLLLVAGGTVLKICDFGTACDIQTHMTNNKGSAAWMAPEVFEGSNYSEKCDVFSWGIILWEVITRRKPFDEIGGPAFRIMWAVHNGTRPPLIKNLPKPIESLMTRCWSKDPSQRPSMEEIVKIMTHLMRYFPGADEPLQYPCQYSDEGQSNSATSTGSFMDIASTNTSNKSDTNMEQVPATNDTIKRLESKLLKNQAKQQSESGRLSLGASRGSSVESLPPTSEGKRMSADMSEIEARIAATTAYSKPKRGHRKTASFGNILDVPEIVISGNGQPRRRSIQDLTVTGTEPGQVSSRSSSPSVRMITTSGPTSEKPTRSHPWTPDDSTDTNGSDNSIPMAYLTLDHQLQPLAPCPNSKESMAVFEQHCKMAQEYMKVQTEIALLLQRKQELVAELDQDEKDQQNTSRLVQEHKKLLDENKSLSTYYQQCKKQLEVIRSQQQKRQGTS
Method in brief: as §1

[9] = target: T9, 384 kinases from the human genome (Homo sapiens, UniProt Q13627); conditions: kinase DYRK1A (Entrez DYRK1A)
T9 construct: purchased Eurofin/DiscoverX
Method in brief: as §1

[10] = target: T10, 384 kinases from the human genome (Homo sapiens, UniProt Q15569); conditions: kinase TESK1 (Entrez TESK1)
T10 construct: purchased Eurofin/DiscoverX
T10 sequence (Q15569 whole entry): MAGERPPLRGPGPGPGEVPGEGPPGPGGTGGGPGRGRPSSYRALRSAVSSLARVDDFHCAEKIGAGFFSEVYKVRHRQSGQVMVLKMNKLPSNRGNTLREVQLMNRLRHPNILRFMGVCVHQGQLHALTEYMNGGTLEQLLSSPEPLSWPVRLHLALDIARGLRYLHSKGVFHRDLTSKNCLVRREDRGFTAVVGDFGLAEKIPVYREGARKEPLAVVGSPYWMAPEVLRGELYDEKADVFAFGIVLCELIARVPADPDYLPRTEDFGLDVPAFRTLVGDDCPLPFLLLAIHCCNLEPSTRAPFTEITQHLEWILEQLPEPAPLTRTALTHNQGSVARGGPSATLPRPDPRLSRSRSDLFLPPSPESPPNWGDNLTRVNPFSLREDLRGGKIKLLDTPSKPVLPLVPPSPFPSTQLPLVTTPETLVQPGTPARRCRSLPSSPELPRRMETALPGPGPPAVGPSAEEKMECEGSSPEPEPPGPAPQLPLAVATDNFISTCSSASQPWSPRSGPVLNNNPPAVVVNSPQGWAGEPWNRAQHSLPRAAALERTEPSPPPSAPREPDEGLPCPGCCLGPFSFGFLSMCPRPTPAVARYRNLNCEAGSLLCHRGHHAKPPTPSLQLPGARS
Method in brief: as §1

[11] = target: T11, 384 kinases from the human genome (Homo sapiens, UniProt O95819); conditions: kinase MAP4K4 (Entrez MAP4K4)
T11 construct: purchased Eurofin/DiscoverX
Method in brief: as §1

[12] = target: T12, 384 kinases from the human genome (Homo sapiens, UniProt Q13464); conditions: kinase ROCK1 (Entrez ROCK1)
T12 construct: purchased Eurofin/DiscoverX
Method in brief: as §1

[13] = target: T13, 384 kinases from the human genome (Homo sapiens, UniProt Q9UBF8); conditions: kinase PIK4CB (Entrez PI4KB)
T13 construct: purchased Eurofin/DiscoverX
Method in brief: as §1

[14] = target: T14, 384 kinases from the human genome (Homo sapiens, UniProt Q9H3Y6); conditions: kinase SRMS (Entrez SRMS)
T14 construct: purchased Eurofin/DiscoverX
T14 sequence (Q9H3Y6 whole entry): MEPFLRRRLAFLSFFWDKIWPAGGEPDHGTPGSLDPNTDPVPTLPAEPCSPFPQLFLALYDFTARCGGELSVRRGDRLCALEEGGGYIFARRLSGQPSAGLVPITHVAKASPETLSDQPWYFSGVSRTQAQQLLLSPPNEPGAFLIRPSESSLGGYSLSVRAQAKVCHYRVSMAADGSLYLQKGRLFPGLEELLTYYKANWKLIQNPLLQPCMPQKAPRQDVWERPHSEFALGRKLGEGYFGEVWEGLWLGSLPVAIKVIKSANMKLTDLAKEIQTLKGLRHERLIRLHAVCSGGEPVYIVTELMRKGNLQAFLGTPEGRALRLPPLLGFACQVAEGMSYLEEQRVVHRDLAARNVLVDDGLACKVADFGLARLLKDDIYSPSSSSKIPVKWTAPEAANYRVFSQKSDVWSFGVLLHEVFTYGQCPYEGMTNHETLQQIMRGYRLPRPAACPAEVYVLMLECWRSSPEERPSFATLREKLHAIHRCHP
Method in brief: as §1

[15] = target: T15, 384 kinases from the human genome (Homo sapiens, UniProt Q9Y463); conditions: kinase DYRK1B (Entrez DYRK1B)
T15 construct: purchased Eurofin/DiscoverX
Method in brief: as §1

[16] = target: T16, 384 kinases from the human genome (Homo sapiens, UniProt Q9BUB5); conditions: kinase MKNK1 (Entrez MKNK1)
T16 construct: purchased Eurofin/DiscoverX
Method in brief: as §1

[17] = target: T17, 384 kinases from the human genome (Homo sapiens, UniProt O15530); conditions: kinase PDPK1 (Entrez PDPK1)
T17 construct: purchased Eurofin/DiscoverX
T17 sequence (O15530 whole entry): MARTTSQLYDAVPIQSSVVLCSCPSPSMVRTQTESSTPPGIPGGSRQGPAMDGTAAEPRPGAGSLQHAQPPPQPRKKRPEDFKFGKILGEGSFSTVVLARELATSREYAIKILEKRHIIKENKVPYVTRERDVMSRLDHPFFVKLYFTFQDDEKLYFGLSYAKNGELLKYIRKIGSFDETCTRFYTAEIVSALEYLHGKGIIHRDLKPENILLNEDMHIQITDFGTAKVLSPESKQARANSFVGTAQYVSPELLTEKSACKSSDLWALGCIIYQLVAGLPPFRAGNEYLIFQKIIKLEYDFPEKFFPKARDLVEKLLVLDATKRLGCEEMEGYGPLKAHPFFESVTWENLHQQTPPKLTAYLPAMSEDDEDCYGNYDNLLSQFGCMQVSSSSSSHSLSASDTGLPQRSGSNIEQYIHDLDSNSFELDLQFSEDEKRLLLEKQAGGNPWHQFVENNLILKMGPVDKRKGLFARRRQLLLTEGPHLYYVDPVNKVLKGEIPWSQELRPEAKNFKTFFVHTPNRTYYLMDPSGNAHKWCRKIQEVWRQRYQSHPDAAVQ
Method in brief: as §1

[18] = target: T18, 384 kinases from the human genome (Homo sapiens, UniProt Q9UM73); conditions: kinase ALK (Entrez ALK)
T18 construct: purchased Eurofin/DiscoverX
Method in brief: as §1

[19] = target: T19, 384 kinases from the human genome (Homo sapiens, UniProt Q92772); conditions: kinase CDKL2 (Entrez CDKL2)
T19 construct: purchased Eurofin/DiscoverX
Method in brief: as §1

[20] = target: T20, 384 kinases from the human genome (Homo sapiens, UniProt O94804); conditions: kinase LOK (Entrez STK10)
T20 construct: purchased Eurofin/DiscoverX
T20 sequence (O94804 whole entry): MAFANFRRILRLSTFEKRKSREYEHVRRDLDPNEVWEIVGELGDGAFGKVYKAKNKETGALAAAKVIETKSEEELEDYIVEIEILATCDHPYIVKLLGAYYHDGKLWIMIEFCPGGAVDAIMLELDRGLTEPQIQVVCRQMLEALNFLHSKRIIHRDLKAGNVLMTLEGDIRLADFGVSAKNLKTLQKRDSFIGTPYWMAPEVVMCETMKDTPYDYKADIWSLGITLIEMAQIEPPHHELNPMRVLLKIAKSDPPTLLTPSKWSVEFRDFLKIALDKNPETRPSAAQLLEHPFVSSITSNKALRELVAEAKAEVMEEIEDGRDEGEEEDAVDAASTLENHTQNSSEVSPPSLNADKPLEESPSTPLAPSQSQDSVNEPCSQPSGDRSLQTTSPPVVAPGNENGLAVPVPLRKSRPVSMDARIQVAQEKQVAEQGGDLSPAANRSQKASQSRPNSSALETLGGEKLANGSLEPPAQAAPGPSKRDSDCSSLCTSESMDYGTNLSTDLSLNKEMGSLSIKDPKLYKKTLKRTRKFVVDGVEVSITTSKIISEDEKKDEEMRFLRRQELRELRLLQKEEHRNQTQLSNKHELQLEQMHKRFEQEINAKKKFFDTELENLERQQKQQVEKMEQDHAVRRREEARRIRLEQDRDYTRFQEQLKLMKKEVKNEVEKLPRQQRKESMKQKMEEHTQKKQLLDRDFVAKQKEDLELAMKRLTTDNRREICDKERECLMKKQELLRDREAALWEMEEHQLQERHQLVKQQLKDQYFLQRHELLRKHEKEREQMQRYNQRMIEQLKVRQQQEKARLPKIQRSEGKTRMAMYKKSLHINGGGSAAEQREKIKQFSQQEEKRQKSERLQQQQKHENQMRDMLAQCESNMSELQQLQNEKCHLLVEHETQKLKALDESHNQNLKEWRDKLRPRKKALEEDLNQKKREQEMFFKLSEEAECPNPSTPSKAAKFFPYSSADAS
Method in brief: as §1

[21] = target: T21, 384 kinases from the human genome (Homo sapiens, UniProt Q8NFD2); conditions: kinase ANKK1 (Entrez ANKK1)
T21 construct: purchased Eurofin/DiscoverX
Method in brief: as §1

[22] = target: T22, 384 kinases from the human genome (Homo sapiens, UniProt P49137); conditions: kinase MAPKAPK2 (Entrez MAPKAPK2)
T22 construct: purchased Eurofin/DiscoverX
Method in brief: as §1

[23] = target: T23, 384 kinases from the human genome (Homo sapiens, UniProt P42684); conditions: kinase ABL2 (Entrez ABL2)
T23 construct: purchased Eurofin/DiscoverX
Method in brief: as §1

[24] = target: T24, 384 kinases from the human genome (Homo sapiens, UniProt P24941); conditions: kinase CDK2 (Entrez CDK2)
T24 construct: purchased Eurofin/DiscoverX
Method in brief: as §1

[25] = target: T25, 384 kinases from the human genome (Homo sapiens, UniProt P35916); conditions: kinase FLT4 (Entrez FLT4)
T25 construct: purchased Eurofin/DiscoverX
Method in brief: as §1

[26] = target: T26, 384 kinases from the human genome (Homo sapiens, UniProt P51813); conditions: kinase BMX (Entrez BMX)
T26 construct: purchased Eurofin/DiscoverX
Method in brief: as §1

Question: With `CC(C)C(=O)N1CCN(c2ccc(NC(=O)c3cc4ccccc4o3)cc2Cl)CC1` [Compound 21] as the compound, how does the “Percent Control” value [1] read?
Answer: Its value is 75%.

Question: And the “Percent Control” value [2]?
Answer: Its value is 100%.

Question: What about the “Percent Control” value [3] of the same compound?
Answer: Its value is 93%.

Question: What about the “Percent Control” value [4] of the same compound?
Answer: The value was 77%.

Question: And the “Percent Control” value [5]?
Answer: The value was 97%.

Question: What about the “binding to BRAF” value ([6]; 10 µM of 21) of the same compound?
Answer: The value was “failed to bind”.

Question: What about the “Percent Control” value ([6]; kinase BRAF (Entrez BRAF)) of the same compound?
Answer: Its value is 93%.

Question: And the “Percent Control” value [7]?
Answer: Its value is 100%.

Question: What about the “Percent Control” value [8] of the same compound?
Answer: Its value is 83%.

Question: And the “Percent Control” value [9]?
Answer: The value was 98%.

Question: And the “Percent Control” value [10]?
Answer: Its value is 82%.

Question: What about the “Percent Control” value [11] of the same compound?
Answer: Its value is 66%.

Question: And the “Percent Control” value [12]?
Answer: The value was 88%.

Question: And the “Percent Control” value [13]?
Answer: Its value is 74%.

Question: And the “Percent Control” value [14]?
Answer: The value was 100%.

Question: And the “Percent Control” value [15]?
Answer: The value was 79%.

Question: What about the “Percent Control” value [16] of the same compound?
Answer: The value was 88%.

Question: What about the “Percent Control” value [17] of the same compound?
Answer: The value was 97%.

Question: And the “Percent Control” value [18]?
Answer: The value was 89%.

Question: What about the “Percent Control” value [19] of the same compound?
Answer: Its value is 100%.

Question: What about the “Percent Control” value [20] of the same compound?
Answer: The value was 100%.

Question: And the “Percent Control” value [21]?
Answer: Its value is 100%.

Question: What about the “Percent Control” value [22] of the same compound?
Answer: The value was 100%.

Question: And the “Percent Control” value [23]?
Answer: Its value is 91%.

Question: And the “Percent Control” value [24]?
Answer: Its value is 100%.

Question: What about the “Percent Control” value [25] of the same compound?
Answer: The value was 89%.

Question: What about the “Percent Control” value [26] of the same compound?
Answer: Its value is 68%.
